Assay results as given in patent US20060062841A1, “Liposomal vectors” (priority 2004, published 2006).

Legend:
[1] = system: immune cells; conditions: sublethally irradiated mice, intraperitoneal injection; cited from earlier work
[2] = system: TNF-α; test: Cytokine assay in the blood: TNF-α; format: in vivo, mouse
Experimental: FIG. 3A-C. Comparison the levels of TNF-α in blood (a), organs (b) and the blood levels of IL-12 and IFN-γ (c) after injection of the lipoplexes and safeplexes. The charge ratio of DOTA to DNA (+/−) (a) was varied from 0 to 12 and (b) and (c) was fixed at 6 to 1. The levels of cytokines were detected 2 h (a,b) or 6 h (c) after injection of the lipoplexes and safeplexes containing 25 μg pDNA. P<0.001 (three mice in each group).
FIG. 4A-B. Effect of (A) DEX dose and (B) time course on suppressing TNF-α. Mice were (three in each group) injected with the lipoplexes or safeplexes with (A) a varied ratio of DEX to DOTAP and (B) with a ratio of DEX to DOTAP of 1/10 (w/w). (a, b) The charge ratio of DOTAP to DNA was fixed at 6 to 1. P>0.5, P<0.001
FIG. 5. Inhibition of TNF-α production by other suppressors. The levels of TNF-α in the blood were analyzed 2 h after the injection of lipoplexes and safeplexes with a charge ratio of DNA to DOTAP of 1/6 (mol/mol). P<0.001 (n=3).
At indicated time points (2 h for TNF-α, 6 h for IL-12 and IFN-γ) following the injection of a tested sample containing 25 μg of pDNA, the blood and organs (the liver, lung and spleen) were collected. The blood was allowed to clot on ice for at least 4 h and then centrifuged at 3000 g for 20 min at 4° C., and serum was collected for the cytokine assay. For the organ assay, […] of each organ was added with 0.5 ml PBS buffer and homogenized for 20 s at the highest speed. The homogenates were frozen (in liquid nitrogen) and thawed (in 37° C. water bath) three times and then centrifuged at 14,000 g for 5 min. The supernatants were collected for the cytokine assay. The concentrations of cytokines (TNF-α, IL-12 and IFN-γ) were determined with mouse cytokine immunoassay kits (R&D System, Minneapolis, Minn.). Data were analyzed by the paired Student's t test using Excel. Data were considered statistically significant if P<0.01.

Molecule | effect on TNF-α production in blood ([2]; mouse, in vivo) | also measured
CN1C(=O)[C@]23CC4=CC=C[C@H](O)[C@H]4N2C(=O)[C@@]1(CO)SS3 [gliotoxin] | – | recovery of immune cells [1]: significant delay; effect on TNF-α production in blood ([2]; carried by safeplexes, inhibitor/DOTAP 1/6 mol/mol, 2 h after injection): showed the inhibitory effect
C[C@]12C=CC(=O)C=C1CC[C@@H]1[C@@H]2C(=O)C[C@@]2(C)[C@H]1CC[C@]2(O)C(=O)CO [prednisone] | showed the inhibitory effect | –
Dexamethasone-Water Soluble [free DEX] | – | inhibition of TNF-α ([2]; 32 μg free DEX intravenously, immediately followed by DNA/DOTAP complexes): less than 45%

More lines, main results first:

effect on TNF-α production in blood ([2]; mouse, in vivo) | Molecule | also measured
showed the inhibitory effect | COc1ccc2c(c1)c(CC(=O)O)c(C)n2C(=O)c1ccc(Cl)cc1 [indomethacin] | –
showed the inhibitory effect | COc1ccc2cc1Oc1ccc(cc1)C[C@H]1c3cc(c(OC)cc3CCN1C)Oc1c(OC)c(OC)cc3c1[C@H](C2)N(C)CC3 [tetrandrine] | –
